According to patent publication US8815939B2, “Substituted sulfamide derivatives” (Janssen Pharmaceutica NV, priority 2008, dated 2014):

Columns and labels:
Type in all cases: in vivo
[1] = Mice studies dosing with the compound of formula (A): plasma and brain analyses; conditions: mice dosed with the compound of formula (A)
Source text: (§1) The compound of formula (A) was initially isolated from human plasma samples from clinical trials dosing with the compound of formula (S). Additionally, the compound of formula (A) is a pro-drug of the compound of formula (S).

CF-1 male albino mice = test: Maximal Electroshock Test (MES), anticonvulsant activity
Experimental: Anticonvulsant activity was determined using the MES test, run according to the procedure described in detail below. Swinyard E A, Woodhead J H, White H S, Franklin M R. Experimental selection, quantification, and evaluation of anticonvulsants. In Levy R H, et al., eds. Antiepileptic Drugs. 3rd ed. New York: Raven Press, 1989:85-102.
CF-1 male albino mice (25-35 g) were fasted for 16 hours before testing. Mice were randomly selected into control and test groups, with the animals dosed with vehicle or test compound, at varying concentrations, respectively. […] Seizures were induced by trans-corneal electric shock using a 60-Hz alternating current, 50 mA, delivered for 0.2 sec. […] […] The test was complete when the entire course of the convulsion has been observed (typically, less than 1 minute after electrical stimulation), and the mice were then immediately euthanized by carbon dioxide inhalation.
Abolition of the full body tonic extensor component of the seizure was taken as the endpoint of the test. […] The ED50 value of the test compound (calculated when appropriate) was the calculated dose required to block the hind limb tonic-extensor component of the MES-induced seizure in 50% of the rodents tested. A probit analysis was used to calculate the ED50 and 95% fiducial limits (FL).
Results are listed as (number of mice with full body tonic extension prevented)/(total number of mice tested) (@ a given time).

[2] = Human plasma samples from clinical trials dosing with the compound of formula (S)
Source text: and pharmaceutically acceptable salts thereof.
as §1

Row | SMILES | plasma and brain levels of compound (A) and compound (S) after dosing (pro-drug conversion) [1] | MES Activity, (number of mice with full body tonic extension prevented)/(total number of mice tested) (CF-1 male albino mice; 200 mg/kg po, 0.50 Hrs) | MES Activity, (number of mice with full body tonic extension prevented)/(total number of mice tested) (CF-1 male albino mice; 200 mg/kg po, 1.0 Hrs) | MES Activity, (number of mice with full body tonic extension prevented)/(total number of mice tested) (CF-1 male albino mice; 200 mg/kg po, 2 Hrs) | MES Activity, (number of mice with full body tonic extension prevented)/(total number of mice tested) (CF-1 male albino mice; 200 mg/kg po, 3 Hrs) | MES Activity, (number of mice with full body tonic extension prevented)/(total number of mice tested) (CF-1 male albino mice; 200 mg/kg po, 6 Hrs) | MES Activity, (number of mice with full body tonic extension prevented)/(total number of mice tested) (CF-1 male albino mice; 150 mg/kg po, 3 Hrs) | metabolite found in human plasma [2]
1 | CC(=O)NS(=O)(=O)NC[C@H]1COc2cc(Cl)ccc2O1 [Compound (A), (2S)-(−)-N′-acetyl-N-(6-chloro-2,3-dihydro-benzo[1,4]dioxin-2-ylmethyl)-sulfamide] | levels of the compound of formula (S) higher than those of the compound of formula (A) | 0/5 | 1/5 | 4/5 | 5/5 | 2/5 |  | 
2 | NS(=O)(=O)NC[C@H]1COc2cc(Cl)ccc2O1 [Compound (S), (2S)-(−)-N-(6-chloro-2,3-dihydro-benzo[1,4]dioxin-2-ylmethyl)-sulfamide, reference compound] |  |  |  |  |  |  | 5/5 | The compound of formula (A) is a human metabolite of the compound of formula (S)
